Data reported in US20260083708A1, “IL-17 MODULATORS AND USES THEREOF” (NNOCARE PHARMA INC., priority 2024, published 2026).

Assays:
[1] = tested on: IL-17AF-induced IL-17 signaling pathway; experiment: Inhibition of IL-17AF-induced IL-17 signaling pathway; format: cell-based; conditions: Homo sapiens; IL-17AF used instead of IL-17AA; read-out: IC50 for Inhibiting IL-AF Signaling
Method in brief: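 HEK293-derived HEK-Blue IL-17 cells (IL-17RA/RC, ACT1, NF-κB/AP-1-driven SEAP) preincubated 1 hour at 37° C with serially diluted compound from 10 μM, then stimulated with IL-17AF for 20 hours. SEAP read colorimetrically at 620 nm; IC50 from 4-parameter fit of % inhibition.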

[2] = tested on: IL-17AA-induced IL-17 signaling pathway; experiment: Inhibition of IL-17AA-induced IL-17 signaling pathway in HEK-Blue IL-17 reporter cells (SEAP); format: cell-based; conditions: Homo sapiens; HEK-Blue IL-17 cells, IL-17AA 2.5 ng/mL, 20 hours; read-out: IC50 for Inhibiting IL-AA Signaling
Method in brief: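 HEK-Blue IL-17 cells (HEK293 expressing human IL-17RA/RC, ACT1 and NF-κB/AP-1-driven SEAP), 10,000/well, pre-incubated with compound (serial dilution from 10 μM) for 1 h at 37 °C, then stimulated with IL-17AA at 2.5 ng/mL final for 20 h. SEAP in supernatant read with Quanti-Blue at 620 nm; IC50 by 4-parameter fit.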

[3] = target: T1, IL-17AA and IL-17RA (Homo sapiens, UniProt Q16552); experiment: Competitive inhibition of human IL-17AA and IL-17RA binding (HTRF); conditions: recombinant IL-17AA (His-tag) and IL-17RA (hFc-tag); read-out: IC50 for Inhibiting IL-AA/IL-RA Binding
T1 construct: purchased Sino Biological 12047-H07B (IL-17AA); 10895-H02H (IL-17RA)
T1 sequence (Q16552 24-155): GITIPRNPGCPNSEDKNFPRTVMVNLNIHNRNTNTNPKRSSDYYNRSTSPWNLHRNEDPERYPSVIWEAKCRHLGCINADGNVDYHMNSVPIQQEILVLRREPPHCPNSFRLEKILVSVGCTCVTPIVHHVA
Method in brief: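 His-IL-17AA (1 nM) premixed 1 h with anti-His-Tb (0.4 nM), and Fc-IL-17RA (1 nM) with anti-IgG-d2 (1 μg/mL); these are pre-mix levels. Compounds, diluted from 10 μM, preincubated 2 h RT with IL-17AA mix; IL-17RA mix then added, 20 min. 665/615 ratio vs no-compound and no-IL-17AA controls; IC50 by 4-parameter fit.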

Row | Structure (SMILES) | IC50 [1] [µM] | IC50 [2] [µM] | IC50 [3] [µM]
1 | [2H]C([2H])([2H])n1nccc1C(=O)N[C@H](C(=O)Nc1ccc([C@H](C)[C@@H](NC(=O)CC)c2ncnn2CC2CC2)cc1F)C(C1CC1)C1CC1 [Compound 62, N-((S)-1,1-dicyclopropyl-3-((4-((1R,2S)-1-(1-(cyclopropylmethyl)-1H-1,2,4-triazol-5-yl)-1-propionamidopropan-2-yl)-2-fluorophenyl)amino)-3-oxopropan-2-yl)-1-(methyl-d3)-1H-pyrazole-5-carboxamide] | 0.0184 | 0.0065 | 0.0026
2 | COCC(=O)N[C@@H](c1nncn1CC1CC1)[C@@H](C)c1ccc(NC(=O)[C@@H](NC(=O)COc2cc(C(F)F)on2)C(C2CC2)C2CC2)c(F)c1 [Compound 8] | 0.073 | 0.035 | 0.013
3 | COCC(=O)N[C@@H](c1nncn1CC1CC1)[C@@H](C)c1ccc(NC(=O)[C@@H](NC(=O)C2(F)CC2)C(C2CC2)C2CC2)c(F)c1 [Compound 11, N-((S)-1,1-dicyclopropyl-3-((4-((1R,2S)-1-(4-(cyclopropylmethyl)-4H-1,2,4-triazol-3-yl)-1-(2-methoxyacetamido)propan-2-yl)-2-fluorophenyl)amino)-3-oxopropan-2-yl)-1-fluorocyclopropane-1-carboxamide] | 0.092 | 0.044 | 0.013
4 | Cc1nonc1C(=O)N[C@H](C(=O)Nc1ccc([C@H](C)[C@@H](NC(=O)COC2CNC2)c2ncnn2CC2CC2)cc1F)C(C1CC1)C1CC1 [Compound 55, N-((S)-1-((4-((1R,2S)-1-(2-(azetidin-3-yloxy)acetamido)-1-(1-(cyclopropylmethyl)-1H-1,2,4-triazol-5-yl)propan-2-yl)-2-fluorophenyl)amino)-3,3-dicyclopropyl-1-oxopropan-2-yl)-4-methyl-1,2,5-oxadiazole-3-carboxamide] | 0.21 | 0.142 | 0.04
5 | CCC(=O)N[C@H](c1ncnn1CC1CC1)[C@@H](C)c1ccc(NC(=O)[C@@H](NC(=O)c2nonc2C)C(C2CC2)C2CC2)c(F)c1 [Compound 83, N-((S)-1,1-dicyclopropyl-3-((4-((1S,2S)-1-(1-(cyclopropylmethyl)-1H-1,2,4-triazol-5-yl)-1-propionamidopropan-2-yl)-2-fluorophenyl)amino)-3-oxopropan-2-yl)-4-methyl-1,2,5-oxadiazole-3-carboxamide] | 0.039 | 0.045 | 0.021
6 | CCC(=O)N[C@@H](c1nncn1CC1CC1)[C@@H](C)c1ccc(NC(=O)[C@@H](NC(=O)c2ccnn2CC)C(C2CC2)C2CC2)c(F)c1 [Compound 1, N-((S)-1,1-dicyclopropyl-3-((4-((1R,2S)-1-(4-(cyclopropylmethyl)-4H-1,2,4-triazol-3-yl)-1-propionamidopropan-2-yl)-2-fluorophenyl)amino)-3-oxopropan-2-yl)-1-ethyl-1H-pyrazole-5-carboxamide] | 0.049 | 0.013 | 0.027
7 | CCC(=O)N[C@@H](c1ncnn1CC1CC1)[C@@H](C)c1ccc(NC(=O)[C@H](NC(=O)c2nonc2C)C(C2CC2)C2CC2)c(F)c1 [Compound 84, N-((R)-1,1-dicyclopropyl-3-((4-((1R,2S)-1-(1-(cyclopropylmethyl)-1H-1,2,4-triazol-5-yl)-1-propionamidopropan-2-yl)-2-fluorophenyl)amino)-3-oxopropan-2-yl)-4-methyl-1,2,5-oxadiazole-3-carboxamide] | 0.085 | 0.063 | 0.031
8 | CC(=O)N[C@@H](c1ncnn1CC1CC1)[C@@H](C)c1ccc(NC(=O)[C@@H](NC(=O)c2nonc2C)C(C2CC2)C2CC2)c(F)c1 [Compound 67, N-((S)-1-((4-((1R,2S)-1-acetamido-1-(1-(cyclopropylmethyl)-1H-1,2,4-triazol-5-yl)propan-2-yl)-2-fluorophenyl)amino)-3,3-dicyclopropyl-1-oxopropan-2-yl)-4-methyl-1,2,5-oxadiazole-3-carboxamide] | 0.013 | 0.008 | 0.0011
9 | [2H]C([2H])([2H])C([2H])([2H])C(=O)N[C@@H](c1ncnn1CC1CC1)[C@@H](C)c1ccc(NC(=O)[C@@H](NC(=O)c2nonc2C)C(C2CC2)C2CC2)c(F)c1 [Compound 75, N-((S)-1,1-dicyclopropyl-3-((4-((1R,2S)-1-(1-(cyclopropylmethyl)-1H-1,2,4-triazol-5-yl)-1-(propanamido-2,2,3,3,3-d5)propan-2-yl)-2-fluorophenyl)amino)-3-oxopropan-2-yl)-4-methyl-1,2,5-oxadiazole-3-carboxamide] | 0.0081 | 0.0061 | 0.0011
10 | [2H]C([2H])([2H])OCC(=O)N[C@@H](c1ncnn1CC1CC1)[C@@H](C)c1ccc(NC(=O)[C@@H](NC(=O)c2nonc2C)C(C2CC2)C2CC2)c(F)c1 [Compound 58, N-((S)-1,1-dicyclopropyl-3-((4-((1R,2S)-1-(1-(cyclopropylmethyl)-1H-1,2,4-triazol-5-yl)-1-(2-(methoxy-d3)acetamido)propan-2-yl)-2-fluorophenyl)amino)-3-oxopropan-2-yl)-4-methyl-1,2,5-oxadiazole-3-carboxamide] | 0.0038 | 0.005 | 0.0014
11 | CCC(=O)N[C@@H](c1ncn(CC2CC2)n1)[C@@H](C)c1ccc(NC(=O)[C@@H](NC(=O)c2nonc2C)C(C2CC2)C2CC2)c(F)c1 [Compound 81, N-((S)-1,1-dicyclopropyl-3-((4-((1R,2S)-1-(1-(cyclopropylmethyl)-1H-1,2,4-triazol-3-yl)-1-propionamidopropan-2-yl)-2-fluorophenyl)amino)-3-oxopropan-2-yl)-4-methyl-1,2,5-oxadiazole-3-carboxamide] | 0.016 | 0.0094 | 0.0045
12 | COCC(=O)N[C@@H](c1nnnn1CC1CC1)[C@@H](C)c1ccc(NC(=O)[C@@H](NC(=O)c2nonc2C)C(C2CC2)C2CC2)c(F)c1 [Compound 54, N-((S)-1,1-dicyclopropyl-3-((4-((1R,2S)-1-(1-(cyclopropylmethyl)-1H-tetrazol-5-yl)-1-(2-methoxyacetamido)propan-2-yl)-2-fluorophenyl)amino)-3-oxopropan-2-yl)-4-methyl-1,2,5-oxadiazole-3-carboxamide] | 0.016 | 0.0036 | 0.003
13 | CCn1nccc1C(=O)N[C@H](C(=O)Nc1ccc([C@H](C)[C@@H](NC(=O)COC)c2ncnn2CC(C)C)cc1F)C(C1CC1)C1CC1 [Compound 36, N-((S)-1,1-dicyclopropyl-3-((2-fluoro-4-((1R,2S)-1-(1-isobutyl-1H-1,2,4-triazol-5-yl)-1-(2-methoxyacetamido)propan-2-yl)phenyl)amino)-3-oxopropan-2-yl)-1-ethyl-1H-pyrazole-5-carboxamide] | 0.0022 | 0.002 | 0.0037
14 | CCOCC(=O)N[C@@H](c1ncnn1CC1CC1)[C@@H](C)c1ccc(NC(=O)[C@@H](NC(=O)c2nonc2C)C(C2CC2)C2CC2)c(F)c1 [Compound 63, N-((S)-1,1-dicyclopropyl-3-((4-((1R,2S)-1-(1-(cyclopropylmethyl)-1H-1,2,4-triazol-5-yl)-1-(2-ethoxyacetamido)propan-2-yl)-2-fluorophenyl)amino)-3-oxopropan-2-yl)-4-methyl-1,2,5-oxadiazole-3-carboxamide] | 0.0083 | 0.004 | 0.0025
15 | CCn1nccc1C(=O)N[C@H](C(=O)Nc1ccc([C@H](C)[C@@H](NC(=O)COC)c2nccnc2OC2CC2)cc1F)C(C1CC1)C1CC1 [Compound 27, N-((S)-1-((4-((1R,2S)-1-(3-cyclopropoxypyrazin-2-yl)-1-(2-methoxyacetamido)propan-2-yl)-2-fluorophenyl)amino)-3,3-dicyclopropyl-1-oxopropan-2-yl)-1-ethyl-1H-pyrazole-5-carboxamide] | 0.102 | 0.039 | 0.027
16 | COCC(=O)N[C@@H](c1nncn1CC1CC1)[C@@H](C)c1ccc(NC(=O)[C@@H](NC(=O)OCc2cc(C(F)F)on2)C(C2CC2)C2CC2)c(F)c1 [Compound 32, (5-(Difluoromethyl)isoxazol-3-yl)methyl ((S)-1,1-dicyclopropyl-3-((4-((1R,2S)-1-(4-(cyclopropylmethyl)-4H-1,2,4-triazol-3-yl)-1-(2-methoxyacetamido)propan-2-yl)-2-fluorophenyl)amino)-3-oxopropan-2-yl)carbamate] | 0.0086 | 0.0057 | 0.0028
